Experimental data reported in US9937165B2, “Pharmacological chaperones for treating obesity” (Amicus Therapeutics, Inc., priority 2005, dated 2018).
Where “and” joins values, the source holds several entries; their conditions need not be identical. Equal entries are not always repeated. Square brackets hold non-standard residues; d marks the D form. Nle = CCCC[C@H](N)C(=O)O

Legend:
[1] = target: T1, MC4R (Homo sapiens, UniProt P32245); conditions: MC4R antagonist; cited from earlier work
[2] = target: MC4R over MC3R (Homo sapiens, UniProt P32245); conditions: cited from earlier work
Chain of MC4R over MC3R (P32245 whole entry): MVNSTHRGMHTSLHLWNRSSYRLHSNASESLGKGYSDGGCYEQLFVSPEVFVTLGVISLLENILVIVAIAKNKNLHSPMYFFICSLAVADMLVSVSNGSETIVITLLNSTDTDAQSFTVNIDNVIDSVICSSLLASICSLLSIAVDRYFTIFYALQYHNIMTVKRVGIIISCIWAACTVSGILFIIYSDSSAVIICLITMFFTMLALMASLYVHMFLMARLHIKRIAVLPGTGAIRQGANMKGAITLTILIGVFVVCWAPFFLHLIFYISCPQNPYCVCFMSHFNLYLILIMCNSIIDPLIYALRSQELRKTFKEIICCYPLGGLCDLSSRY

[3] = target: MC4R as compared to the MC5R (Homo sapiens, UniProt P32245); conditions: cited from earlier work
Chain of MC4R as compared to the MC5R (P32245 whole entry): as above

[4] = target: MC4R as compared to the MC3R (Homo sapiens, UniProt P32245); conditions: cited from earlier work
Chain of MC4R as compared to the MC3R (P32245 whole entry): as above

[5] = target: T1, MC4R; conditions: cited from earlier work
[6] = Phase I study of DGJ, pharmacokinetics in plasma and urine; assay type: in vivo, human
Procedure: (§1) Subjects were housed in the treatment facility from 14 hours prior to dosing until 24 hours after dosing. Meals were controlled by schedule and subjects remained abulatory for 4 hours post drug administration.
Blood samples (10 mL each) were collected in blood collection tubes containing EDTA before dosing and at the following times thereafter: 0.25, 0.5, 0.75, 1, 1.5, 2, 3, 4, 5, 6, 7, 8, 9, 10, 11 and 12 hours. Blood samples were cooled in an ice bath and centrifuged under refrigeration as soon as possible. Plasma samples were divided into two aliquots and stored at […]. pending assay. At the end of the study, all samples were transferred to MDS Pharma Services Analytical Laboratories (Lincoln) for analysis.
Pharmacokinetic parameters were summarised by treatment group using descriptive statistics (arithmetic means, standard deviations, coefficients of variation, sample size, minimum, maximum and median).

[7] = target: T2, α-Galactosidase A (α-Gal A) (Homo sapiens, UniProt P06280); assay: Phase I study of DGJ, WBC α-Gal A enzymatic activity; assay type: in vivo; set-up: α-Gal A activity was calculated in white blood cells (WBC) before dosing began; endogenous in cells
T2 sequence (P06280 32-429): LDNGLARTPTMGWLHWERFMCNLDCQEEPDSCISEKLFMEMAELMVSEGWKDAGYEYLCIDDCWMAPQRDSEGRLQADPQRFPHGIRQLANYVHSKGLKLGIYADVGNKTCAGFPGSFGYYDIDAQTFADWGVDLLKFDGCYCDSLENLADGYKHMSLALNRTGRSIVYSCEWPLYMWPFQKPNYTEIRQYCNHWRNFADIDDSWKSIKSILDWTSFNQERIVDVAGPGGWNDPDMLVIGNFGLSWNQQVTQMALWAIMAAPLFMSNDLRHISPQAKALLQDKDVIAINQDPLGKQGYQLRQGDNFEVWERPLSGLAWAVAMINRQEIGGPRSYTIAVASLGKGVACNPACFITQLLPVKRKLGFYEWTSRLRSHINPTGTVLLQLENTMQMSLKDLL
Procedure: as §1
Blood samples (10 mL each) were collected in blood collection tubes containing EDTA and WBC extracted before dosing and at the following times thereafter: 100 hours, 150 hours, and 336 hours. Samples were treated as described above, and WBC α-Gal A enzymatic activity levels were determined.

[8] = target: T2, α-Galactosidase A (α-Gal A); set-up: host or cells: normal lymphoblasts (endogenous enzyme); conditions: normal lymphoblasts cultured in vitro with DGJ; cited from earlier work
[9] = Phase I study of DGJ, safety and tolerability; assay type: in vivo, human
Procedure: as §1
Safety was determined by evaluating vital signs, laboratory parameters (serum chemistry, hematology, and urinalysis), ECGs, physical examination and by recording adverse events during the Treatment Period.
Safety data including laboratory evaluations, physical exams, adverse events, ECG monitoring and vital signs assessments were summarized by treatment group and point of time of collection. Descriptive statistics (arithmetic mean, standard deviation, median, minimum and maximum) were calculated for quantitative safety data as well as for the difference to baseline. Frequency counts were compiled for classification of qualitative safety data.
Adverse events were coded using the MedDRA version 7.0 dictionary and summarized by treatment for the number of subjects reporting the adverse event and the number of adverse events reported. A by-subject adverse event data listing including verbatim term, coded term, treatment group, severity, and relationship to treatment was provided. Concomitant medications and medical history were listed by treatment.

T1 sequence (P32245 whole entry): as the sequence (P32245 whole entry) above

Ac-Nle-c[Asp-Che-DNal(2′)-Arg-Trp-Lys-NH(2) [SHU9119 analogue, cyclic MC4R antagonist of Grieco et al., J Med Chem 2002]
IC50 [1]: 0.48 nM
selectivity over MC3R [2]: 100 fold

Ac-Nle-Gly-Lys-D-Phe-Arg-Trp-Gly-NH(2) (Ac-[Nle]GK[dF]RWG-NH2; SMILES CCCC[C@H](NC(C)=O)C(=O)NCC(=O)N[C@@H](CCCCN)C(=O)N[C@H](Cc1ccccc1)C(=O)N[C@@H](CCCNC(=N)N)C(=O)N[C@@H](Cc1c[nH]c2ccccc12)C(=O)NCC(N)=O)
selectivity for the MC4R as compared to the MC5R [3]: 110 fold
selectivity for the MC4R as compared to the MC3R [4]: 90 fold

O=C(N[C@H](Cc1ccc(Cl)cc1)C(=O)N1CCN(c2ccccc2CN2CCCC2)CC1)[C@H]1Cc2ccccc2CN1 [Compound 2]
EC50 [5]: 39 nM

OC[C@H]1NC[C@H](O)[C@@H](O)[C@H]1O [DGJ, 1-deoxygalactonojirimycin]
tmax ([6]; 50 mg b.i.d. oral, Day 1): 2.9 ± 0.4 h
t½ ([6]; 50 mg b.i.d. oral, Day 1): 2.5 h
12 h cumulative renal excretion ([6]; 50 mg b.i.d. oral, Day 1, 12-hour post dose period): 16% and 16 ± 6%
Cmax ([6]; 50 mg b.i.d. oral, Day 1, plasma): 2.3 ± 0.3 µM
Cmin ([6]; 50 mg b.i.d. oral, Day 7): 0.4 ± 0.03 µM
tmax ([6]; 50 mg b.i.d. oral, Day 7): 2.5 ± 0.4 h
12 h cumulative renal excretion ([6]; 50 mg b.i.d. oral, Day 7, 12-hour post dose period): 48% and 48 ± 7%
Cmax ([6]; 50 mg b.i.d. oral, Day 7, plasma): 39 ± 0.5 µM
tmax ([6]; 150 mg b.i.d. oral, Day 1): 3.1 ± 0.4 h
t½ ([6]; 150 mg b.i.d. oral, Day 1): 2.4 h
12 h cumulative renal excretion ([6]; 150 mg b.i.d. oral, Day 1, 12-hour post dose period): 42% and 42 ± 7%
Cmax ([6]; 150 mg b.i.d. oral, Day 1, plasma): 11.3 ± 1.5 µM
Cmin ([6]; 150 mg b.i.d. oral, Day 7): 1.2 ± 0.1 µM
tmax ([6]; 150 mg b.i.d. oral, Day 7): 2.9 ± 0.4 h
12 h cumulative renal excretion ([6]; 150 mg b.i.d. oral, Day 7, 12-hour post dose period): 60% and 60 ± 5%
Cmax ([6]; 150 mg b.i.d. oral, Day 7, plasma): 10.8 ± 1.4 µM
time of peak concentrations, on average ([6]; all dose levels): approximately 3 hours
dose dependence of Cmax ([6]; doses increased from 50 mg to 150 mg): increased in a dose-proportional manner
inhibition of WBC α-Gal A enzymatic activity ([7]; 50 mg b.i.d. or 150 mg b.i.d.): did not inhibit
WBC α-Gal A enzymatic activity, % pre-dose levels ([7]; 50 mg b.i.d., 150 hours): 130%
WBC α-Gal A enzymatic activity, % pre-dose levels ([7]; 50 mg b.i.d., 336 hours): 145%
WBC α-Gal A enzymatic activity, % pre-dose levels ([7]; 150 mg b.i.d., 100 hours): 150%
WBC α-Gal A enzymatic activity, % pre-dose levels ([7]; 150 mg b.i.d., 150 hours): 185%
WBC α-Gal A enzymatic activity, % pre-dose levels ([7]; 150 mg b.i.d., 336 hours): 185%
increase of α-Gal A activity [8]: 30%
safety and tolerability ([9]; 50 mg b.i.d. and 150 mg b.i.d., healthy male subjects): safe and well tolerated
adverse events (AEs) ([9]; 50 mg b.i.d. or 150 mg b.i.d., healthy male subjects): no subject presented with AEs
vital sign, ECG, or physical examination parameter ([9]; throughout the study): No clinically relevant abnormality

Ac-Nle-c[Asp-Cpe-DNal(2′)-Arg-Trp-Lys-NH(2) [SHU9119 analogue, cyclic MC4R antagonist of Grieco et al., J Med Chem 2002]
IC50 [1]: 0.51 nM
selectivity over MC3R [2]: 200 fold
